Test results reported in patent EP0450100A1, “PHYSIOLOGICALLY ACTIVE PEPTIDE” (MEIJI SEIKA KAISHA LTD., priority 1989, dated 1991).
No end group written: not given here.

Test system: canine femoral artery
Test: Influence of the peptides on the blood flow passing through canine femoral artery (VIP bioassay method of Said and Mutt)
Format: in vivo
Conditions: anesthetized beagles; 200 p mol/kg injected into the femoral artery; 0.5 to 4 minutes after injection; conclusion from Table 1 and Table 2
Method: The above-mentioned influence was estimated according to the VIP bioassay method proposed by Said and Mutt [see "Nature" 225, 863-864 (1970)]. After three mature beagles having the body weight of 10 kg were fasted for 18 hours, they were anesthetized with thiamylal (10 mg/kg) and Nembutal ([…]). During the experiment, physiological saline was continuously injected (2 mℓ/min.) into a vein of each beagle and the body temperature of the beagle was maintained at 37-38°C by an electric heater. The femoral artery was surgically exposed, and a polyethylene tube filled with heparin-added physiological saline was inserted in and fixed to a muscle branch of the femoral artery so that the polyethylene tube could be used as an injection route for each peptide under test. A probe of an electro-magnetic blood flowmeter was attached to the femoral artery on a peripheral side of the muscle branch so that the average flow rate of blood through the artery was recorded as time-dependent variations on a polygraphy.
A solution of 10 µg of each tested polypeptide dissolved in 25 µℓ of 0.01 N HCl was diluted with physiological saline to prepare an injectable solution of the peptide. The injectable solution was injected into the artery by means of a peristaltic pump. Each peptide was injected at the dose of 200 p mol/kg. Tested peptides included the following compounds: Compound 1: Hd(1-33)-NH2 [the invention peptide of formula (Ic)] Compound 2: Hd(1-31)-NH₂ [the invention peptide of formula (Ia)] Compound 3: VIP(1-28)-Hd(29-35)-NH₂ [the invention peptide of formula (III)] Compound 4: VIP(1-11)-Hd(12-31)-NH₂ [the invention peptide of formula (II)]
Upon elapsed times of 0.5 minute, 1 minute, 2 minutes, 3 minutes and 4 minutes after the injection of each peptide under test,the blood flow rate was measured. Increases in the femoral arterial blood flow rate (mℓ/min.) as comapred with the basal level of blood flow rate were calculated. It may be added that the test results of Table 1 and those of Table 2 were obtained through tests which were conducted by the same method but at different times.

| Substance | activity of increasing the blood flow rate (femoral arterial blood flow rate) compared with helodermin | sustaining of the blood-flow-rate-increasing activity compared with helodermin |
| --- | --- | --- |
| HSDAIFTQQYSKLLAKLALQKYLASILGSRT-NH2 [Compound 2, Hd(1-31)-NH₂] | enhanced activity of increasing the blood flow rate over helodermin | effects of sustaining the blood-flow-rate-increasing activity in comparison with helodermin |
| HSDAIFTQQYSKLLAKLALQKYLASILGSRTSP-NH2 [Compound 1, Hd(1-33)-NH₂] | enhanced activity of increasing the blood flow rate over helodermin | effects of sustaining the blood-flow-rate-increasing activity in comparison with helodermin |
